{"source": "paper PMC9643456", "about": "“Matching amino acids membrane preference profile to improve activity of antimicrobial peptides” (Communications Biology, 2022)", "key": {"[1]": {"details": "100 mg/kg s.c. daily for 3 days, n = 3; BUN and creatinine", "procedure": "To assess nephrotoxicity, mice (female BALB/c, 8 weeks old; n = 3) were subcutaneously administered WCopW43 (100 mg/kg) or PBS (controls) three times (once every 24 h). Blood samples were then collected from the retroorbital veins into heparin-coated glass capillary tubes (Kimble Chase, NJ, USA), which were then centrifuged at 4000 rpm. The serum was collected and analyzed using a blood urea nitrogen (BUN) assay kit (Arbor Assay, Ann Arbor, USA) and a creatinine assay kit (Arbor Assay). Levels of BUN and blood creatinine clearance were measured using a SpectraMax plate spectrophotometer (Molecular Devices) at 450 nm and 490 nm, respectively."}, "[2]": {"tested_on": "colistin-resistant A. baumannii", "assay": "In vivo activity, survival of infected mice", "details": "mouse model infected with colistin-resistant A. baumannii", "description": "(§1) Female BALB/c mice (8-week old; n = 10) were purchased from orientbio (Gyeonggido, Republic of Korea) and fed under standardized environmental conditions for 1 week to be used to estimate time-dependent mouse survival rates. After inducing neutropenia by intraperitoneal injection of cyclophosphamide (150 mg/kg; Sigma), MDR S. aureus (KCCM 40510), MDR A. baumannii (colistin-resistant strain) or MDR K. pneumonia (colistin-resistant strain, NCCP 16125) was diluted in PBS and subcutaneously injected into mice (S. aureus, 1.5 × 10^8 CFU/ml; A. baumannii, 1 × 10^8 CFU/ml; K. pneumonia, 1 × 10^9 CFU/ml). After bacterial infection, 100 μl of WCopW43 peptide dissolved in distilled water (10 mg/ml) were injected (50 mg/kg) into each infected site, and survival was monitored every 12 h for 7 days. For A. baumannii infection, mice were intraperitoneally injected with mucin ([…], 1% in PBS, 300 μl) to suppress macrophages, and A. baumannii cells were incubated with mucin (1% in PBS) for 3 h before subcutaneous injection of 2 × 10^8 CFU/ml (0.2% mucin in PBS)[71]–[74]. Survival rates were calculated using the formula: 100% × (number of surviving mice/ten mice). One day after WCopW43 (50 mg/kg) injection, four mice were randomly selected and sacrificed by CO2 inhalation. […] Homogenized samples were spread onto MH agar plates, and CFU values were determined after incubation overnight at 37 °C."}, "K. pneumonia strains": {"tested_on": "K. pneumonia strains", "assay": "microbe, parasite or virus in culture"}, "E. aerogenes NCCP 16285": {"tested_on": "E. aerogenes NCCP 16285", "assay": "microbe, parasite or virus in culture", "description": "(§2) To assess antimicrobial activity, the MIC50 and MIC90 were measured using broth microdilution following CLSI guidelines. […] Each experiment was performed in triplicate. Meropenem (Sigma, Darmstadt, Germany) and colistin were used as control antibiotics. Cation-adjusted Mueller–Hinton broth (CAMHB) (Becton, Dickinson and Company, Franklin Lakes, USA) with supplied calcium (50 mg/L) and magnesium (10 mg/L) was used for the CLSI-test condition. Bacteria in midlog phase and peptides were separately diluted in CAMHB. The bacteria and peptide solutions were then mixed in 96-well polyethylene plates (SPL, Gyeonggi-do, Korea) and incubated for 18 h at 37 °C. The final concentration for bacteria was 5 × 10^5 CFU/ml. […] The MIC was defined to be the lowest concentration of peptide without visible turbidity by comparing with control antibiotics with the unaided eye. […] Each experiment was performed in triplicate. MICs in albumin and acetic acid solutions were measured using the same protocol but with 0.2% bovine serum albumin (Bovogen, Keilor, Australia), 0.01% acetic acid (Merck, New Jersey, USA), and CAMHB with both calcium and magnesium. In addition, MICs used in the antibiotic resistance acquisition test, the outer–inner membrane permeation test, and the transmembrane potential test and for FE-SEM were individually determined. The final bacterial concentrations used were as follows: for resistance acquisition, optical density (OD) 0.01; for outer–inner membrane permeability assays (LB), OD 0.1; for the transmembrane potential test, 1 × 10^8 CFU/ml (OD 0.171); […]. Inhibitory activity unidentifiable by direct observation was determined by counting the CFUs. Each experiment was performed at least twice."}, "[3]": {"tested_on": "A. baumannii (KCCM 40203) and S. aureus (KCTC 1621)", "details": "MIC and sub-MIC exposure for 30 days (30 passages)", "excerpt": "(§3) A. baumannii (KCCM 40203) and S. aureus (KCTC 1621) were selected as drug-sensitive bacteria. Mutation-susceptible tetracycline (an antibiotic that targets ribosomes) (Sigma, Darmstadt, Germany) and ofloxacin (an antibiotic that targets DNA gyrase) (Sigma, Darmstadt, Germany), mutation-resistant colistin (an antibiotic that targets lipopolysaccharide) (Sigma, Darmstadt, Germany) and vancomycin (an antibiotic that targets peptidoglycan pentapeptide) (Sigma, Darmstadt, Germany) were used as control antibiotics. The MIC for each antibiotic against bacteria (at OD 0.01) was measured. […] The MIC for each passage was confirmed by additional broth microdilutions under CLSI guidelines. Resistance acquisition was induced for 30 days (30 passages), and each MIC value was confirmed by an independent MIC test against bacteria at each passage."}, "[4]": {"tested_on": "MDR A. baumannii, MDR S. aureus or MDR K. pneumonia", "assay": "In vivo activity, subcutaneously infected mice", "set-up": "species or system BALB/c mice", "description": "as §1"}, "MDR S. aureus": {"tested_on": "MDR S. aureus", "assay": "Killing kinetics in the SEM sample", "assay_type": "cell-based, Staphylococcus aureus", "details": "2 × 10^8 cfu/ml, x1 MIC, PBS, after 4 hours", "description": "FE-SEM was used to observe peptide-induced changes in bacterial morphology. MDR A. baumannii (ATCC BAA-1605) and MDR S. aureus (KCCM 40510) were cultured in CAMHB to log phase and washed in PBS. Bacteria and peptides were diluted in PBS, after which aliquots of bacteria (50 μl) and peptides (50 μl) were mixed to yield the following final concentrations: MDR A. baumannii or MDR S. aureus, 2 × 10^8 CFU/ml; WCopW29, 2.5 μM. Mixtures were deposited onto cover glass slips and incubated for 0 min, 15 min, 30 min, 1 h or 4 h. After incubation, the bacteria were fixed with paraformaldehyde (4%) and osmium tetroxide (1%) (Sigma, Darmstadt, Germany), washed with water, and freeze-dried overnight. Freeze-dried samples were Pt-coated and placed in an S-4700, EMAX System field emission scanning electron microscope (Hitachi, Tokyo, Japan). Bacterial morphologies were imaged and recorded on video at magnifications of 10,000× and 25,000×.\nAntimicrobial kinetics for each peptide and each bacterial strain were assessed using FE-SEM. […] Each experiment was performed in triplicate."}, "A. baumannii KCCM 40203": {"tested_on": "A. baumannii KCCM 40203", "assay": "microbe, parasite or virus in culture", "details": "bacteria OD 0.01, CAMHB", "description": "as §2, §3"}}, "note": "Square brackets hold non-standard residues; d marks the D form. Peptide text beside a SMILES is read from it.", "data": [{"compound": "CC[C@@H](C)[C@@H](NC(=O)[C@@H](Cc1c[nH]c2ccccc12)NC(=O)[C@@H](CCCNC(=N)N)NC(=O)[C@@H](CCCNC(=N)N)NC(=O)[C@H](N)CCCNC(=N)N)C(=O)N[C@H](Cc1c[nH]c2ccccc12)C(=O)N[C@@H](C(=O)N[C@@H](C(=O)N[C@H](Cc1c[nH]c2ccccc12)C(=O)N[C@H](CCCCN)C(N)=O)[C@H](C)CC)C(C)C", "note": "[WCopW43] (H-[dR][dR][dR][dW][dI][dW][dV][dI][dW][dK]-NH2)", "values": [{"measurement": "Nephrotoxicity indicators", "setting": "[1]", "value": "non-nephrotoxic"}, {"measurement": "Survival rate", "setting": "[2]", "value": 100, "unit": "%"}, {"measurement": "MIC, K. pneumonia NCCP 15782", "setting": "K. pneumonia strains; 18 h", "value": 1.25, "unit": "µM"}, {"measurement": "MIC, K. pneumonia NCCP 15864", "setting": "K. pneumonia strains; 18 h", "value": 1.25, "unit": "µM"}, {"measurement": "MIC, K. pneumonia NCCP 15866", "setting": "K. pneumonia strains; 18 h", "value": 2.5, "unit": "µM"}, {"measurement": "MIC, K. pneumonia NCCP 16052", "setting": "K. pneumonia strains; 18 h", "value": 2.5, "unit": "µM"}, {"measurement": "MIC, K. pneumonia NCCP 16124", "setting": "K. pneumonia strains; 18 h", "value": 1.25, "unit": "µM"}, {"measurement": "MIC, K. pneumonia NCCP 16125", "setting": "K. pneumonia strains; 18 h", "value": 2.5, "unit": "µM"}, {"measurement": "MIC, K. pneumonia NCCP 16128", "setting": "K. pneumonia strains; 18 h", "value": 5, "unit": "µM"}, {"measurement": "MIC, K. pneumonia NCCP 16208", "setting": "K. pneumonia strains; 18 h", "value": 1.25, "unit": "µM"}, {"measurement": "MIC, K. pneumonia NCCP 16212", "setting": "K. pneumonia strains; 18 h", "value": 2.5, "unit": "µM"}, {"measurement": "MIC, K. pneumonia NCCP 16213", "setting": "K. pneumonia strains; 18 h", "value": 1.25, "unit": "µM"}, {"measurement": "MIC, E. aerogenes NCCP 16285", "setting": "E. aerogenes NCCP 16285; NCCP 16285, 18 h", "value": 1.25, "unit": "µM"}, {"measurement": "MIC during resistance acquisition", "setting": "[3]", "value": "emergence of WCopW43 resistance is suppressed"}, {"measurement": "Decrease of bacterial burden (CFU)", "setting": "[4]; WCopW43 50 mg/kg s.c. 1 h after infection, tissue CFU one day after infection, vs PBS", "value": "~ 90%"}, {"measurement": "Survival compared with PBS-injected mice", "setting": "[4]; WCopW43 50 mg/kg s.c., neutropenic BALB/c mice, n = 10, 7 days", "value": "survived longer"}]}, {"compound": "CC[C@@H](C)[C@@H](NC(=O)[C@@H](Cc1c[nH]c2ccccc12)NC(=O)[C@H](NC(=O)[C@@H](CC(C)C)NC(=O)[C@H](N)Cc1c[nH]c2ccccc12)C(C)C)C(=O)N[C@H](Cc1c[nH]c2ccccc12)C(=O)N[C@H](CCCNC(=N)N)C(=O)N[C@H](CCCNC(=N)N)C(=O)N[C@H](CCCNC(=N)N)C(N)=O", "note": "[WCopW29] (H-[dW][dL][dV][dW][dI][dW][dR][dR][dR]-NH2)", "values": [{"measurement": "MIC during resistance acquisition", "setting": "[3]", "value": "stable over a period of 30 days"}, {"measurement": "Loss of colony forming", "setting": "MDR S. aureus", "value": 90, "unit": "%"}, {"measurement": "MIC at resistance induction condition, A. baumannii KCCM 40203", "setting": "A. baumannii KCCM 40203", "value": 1.25, "unit": "µM"}]}, {"compound": "Colistin", "values": [{"measurement": "Survival rate", "setting": "[2]", "value": 90, "unit": "%"}, {"measurement": "MIC, K. pneumonia NCCP 15782", "setting": "K. pneumonia strains; CLSI", "value": 1.25, "unit": "µM"}, {"measurement": "MIC, K. pneumonia NCCP 15864", "setting": "K. pneumonia strains; CLSI", "value": 0.63, "unit": "µM"}, {"measurement": "MIC, K. pneumonia NCCP 15866", "setting": "K. pneumonia strains; CLSI", "value": 0.63, "unit": "µM"}, {"measurement": "MIC, K. pneumonia NCCP 16052", "setting": "K. pneumonia strains; CLSI", "value": 0.63, "unit": "µM"}, {"measurement": "MIC, K. pneumonia NCCP 16124", "setting": "K. pneumonia strains; CLSI", "value": 20, "unit": "µM"}, {"measurement": "MIC, K. pneumonia NCCP 16128", "setting": "K. pneumonia strains; CLSI", "value": 5, "unit": "µM"}, {"measurement": "MIC, K. pneumonia NCCP 16208", "setting": "K. pneumonia strains; CLSI", "value": "< 0.31", "unit": "µM"}, {"measurement": "MIC, K. pneumonia NCCP 16212", "setting": "K. pneumonia strains; CLSI", "value": "< 0.31", "unit": "µM"}, {"measurement": "MIC, K. pneumonia NCCP 16213", "setting": "K. pneumonia strains; CLSI", "value": 0.63, "unit": "µM"}, {"measurement": "MIC, E. aerogenes NCCP 16285", "setting": "E. aerogenes NCCP 16285; MIC test, 5 x 10^5 cfu/ml, CAMHB", "value": "> 5", "unit": "µM"}, {"measurement": "MIC at resistance induction condition, A. baumannii KCCM 40203", "setting": "A. baumannii KCCM 40203", "value": 1.25, "unit": "µM"}]}]}
